Reference: patent US11173145B2, “Compounds useful as inhibitors of indoleamine 2,3-dioxygenase and/or tryptophan dioxygenase” (Board of Regents, The University of Texas System, priority 2017, dated 2021)

Target: T1, IDO1 (Homo sapiens, UniProt P14902)
T1 construct: endogenous in cells; host or cells: HeLa cells (ATCC), IFNgamma-induced
Assay: IDO1 cell-based assay (HeLa cells, IFNgamma-induced, N-formylkynurenine/L-tryptophan by RFMS)
Conditions: 10 ng/mL IFNgamma, 24 hours
Procedure: HeLa cells were obtained from the American Type Culture Collection (ATCC) and maintained in DMEM media containing 10% FBS. Cells (7,000/well) were seeded onto a 384 well plate in 50 μL of media and incubated at 37° C., 5% CO2 overnight. Cell media was aspirated, fresh media containing 10 ng/mL IFNgamma was added, and cells were incubated in absence or presence of various concentrations of test compound (final 0.5% DMSO) for 24 hours. Aliquots of the cell conditioned media were removed from the cell plate, and mixed with an equal volume of 200 mM ZnSO4 to precipitate media containing proteins. Two volumes of acetonitrile were added, mixed, and samples were then centrifuged at 2250G for 20 minutes at 4° C. Aliquots of the supernatant were diluted 1:10 in 0.1% formic acid containing 3 μM of deuterated Tryptophan as an internal standard.
Samples were analyzed via RFMS to quantify N-Formyl Kynurenine (AUC) and L-tryptophan (AUC). A C18 cartridge was used with mobile phases of 0.1% Formic Acid and 80% ACN/0.1% Formic Acid under isocratic conditions. Dose-response curves were analyzed using IC50 regression curve fitting (GeneData Screener). […] Cell viability was also assessed using the Cell Titer Glo Kit (Promega) following manufacturer recommendation.

T1 sequence (P14902 whole entry): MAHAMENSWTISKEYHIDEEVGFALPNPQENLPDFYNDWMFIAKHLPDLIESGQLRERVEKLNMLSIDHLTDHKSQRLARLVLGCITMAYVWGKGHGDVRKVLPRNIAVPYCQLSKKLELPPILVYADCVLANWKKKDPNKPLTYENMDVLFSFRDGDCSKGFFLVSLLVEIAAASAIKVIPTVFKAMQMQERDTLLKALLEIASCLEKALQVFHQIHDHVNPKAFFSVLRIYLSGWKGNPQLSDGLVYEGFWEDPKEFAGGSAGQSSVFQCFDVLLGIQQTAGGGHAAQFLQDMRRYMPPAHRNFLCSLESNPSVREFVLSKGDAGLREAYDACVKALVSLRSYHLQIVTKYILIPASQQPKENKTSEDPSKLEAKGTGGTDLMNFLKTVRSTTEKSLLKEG

`CCC(NC(=O)c1ccc(Cl)cc1)[C@H]1[C@@H]2C[C@@H](O)C[C@@H]21` (single isomer, unassigned) [Compound 3] gave an IC50 of 200 to 2000 nM.

In the case of `CCC(NC(=O)c1ccc(Cl)cc1)[C@H]1[C@@H]2C[C@H](O)C[C@@H]21` (stereo partly drawn) [Compound 1, 4-chloro-N-(1-((1R,3r,5S,6r)-3-hydroxybicyclo[3.1.0]hexan-6-yl)propyl)benzamide], the IC50 is reported as 2000 to 5000 nM.

`CCC(NC(=O)c1ccc(Cl)cc1)[C@H]1[C@@H]2C[C@@H](Oc3ncnc4ccc(F)cc34)C[C@@H]21` (stereo partly drawn) [Compound 5, 4-chloro-N-(1-((1R,3s,5S,6r)-3-((6-fluoroquinazolin-4-yl)oxy)bicyclo[3.1.0]hexan-6-yl)propyl)benzamide] gave an IC50 of less than 200 nM.

`CCC(NC(=O)c1ccc(Cl)cc1)[C@H]1[C@@H]2C[C@@H](n3cnc4ccc(F)cc4c3=O)C[C@@H]21` (stereo partly drawn) [Compound 6, 4-chloro-N-(1-((1R,3s,5S,6r)-3-(6-fluoro-4-oxoquinazolin-3(4H)-yl)bicyclo[3.1.0]hexan-6-yl)propyl)benzamide] was tested, and the IC50 was less than 200 nM.

In the case of `O=C(Cc1ccc(Cl)cc1)NC1[C@H]2C[C@H](Oc3ccnc4ccc(F)cc34)C[C@@H]12` (stereo partly drawn) [Compound 7, 2-(4-chlorophenyl)-N-((1R,3s,5S,6r)-3-((6-fluoroquinolin-4-yl)oxy)bicyclo[3.1.0]hexan-6-yl)acetamide], the IC50 is reported as less than 200 nM.

Work on `O=C(Nc1ccc(Cl)cc1)C1[C@H]2CC(Oc3ccnc4ccccc34)C[C@@H]12` (stereo partly drawn) [Compound 8, (1R,5S)-N-(4-chlorophenyl)-3-(quinolin-4-yloxy)bicyclo[3.1.0]hexane-6-carboxamide] yielded an IC50 of 2000 to 5000 nM.

In the case of `O=C(Nc1ccc(Cl)cc1)N[C@H]1[C@@H]2C[C@@H](Oc3ccnc4ccc(F)cc34)C[C@@H]21` [Compound 10, 1-(4-chlorophenyl)-3-((1R,3s,5S,6r)-3-((6-fluoroquinolin-4-yl)oxy)bicyclo[3.1.0]hexan-6-yl)urea], the IC50 is reported as less than 200 nM.

Molecule `Clc1ccc(-c2nnc(C3C4CC(Oc5ccnc6ccccc56)CC43)o2)cc1` (centres unmarked) [Compound 11, 2-(4-chlorophenyl)-5-(3-(quinolin-4-yloxy)bicyclo[3.1.0]hexan-6-yl)-1,3,4-oxadiazole] has an IC50 greater than 5000 nM.

In the case of `CC(NC(=O)c1ccc(Cl)cc1)[C@H]1[C@@H]2C[C@@H](Oc3ncnc4ccc(F)cc34)C[C@@H]21` (stereo partly drawn) [Compound 13, 4-chloro-N-(1-((1R,3s,5S,6r)-3-((6-fluoroquinazolin-4-yl)oxy)bicyclo[3.1.0]hexan-6-yl)ethyl)benzamide], the IC50 is reported as less than 200 nM.

With `CCC(NC(=O)c1ccc(Cl)cc1)[C@H]1[C@@H]2C[C@@H](Oc3ccc(F)cc3)C[C@@H]21` (stereo partly drawn) [Compound 14, 4-chloro-N-(1-((1R,3s,5S,6r)-3-(4-fluorophenoxy)bicyclo[3.1.0]hexan-6-yl)propyl)benzamide] the IC50 was less than 200 nM.

Molecule `CCC(NC(=O)c1ccc(Cl)cc1)[C@H]1[C@@H]2C[C@@H](Oc3ccnc(C)c3)C[C@@H]21` (stereo partly drawn) [Compound 15, 4-chloro-N-(1-((1R,3s,5S,6r)-3-((2-methylpyridin-4-yl)oxy)bicyclo[3.1.0]hexan-6-yl)propyl)benzamide] has an IC50 of less than 200 nM.

With `O=C(NCc1ccc(Cl)cc1)C1[C@H]2CC(Oc3ccnc4ccccc34)C[C@@H]12` (stereo partly drawn) [Compound 16, (1R,5S)-N-(4-chlorobenzyl)-3-(quinolin-4-yloxy)bicyclo[3.1.0]hexane-6-carboxamide] the IC50 was greater than 5000 nM.

`O=C(NCc1ccc(Cl)cc1)C1[C@H]2CC(Oc3cc(C(F)(F)F)nc4ccc(F)cc34)C[C@@H]12` (stereo partly drawn) [Compound 17, (1R,5S)-N-(4-chlorobenzyl)-3-((6-fluoro-2-(trifluoromethyl)quinolin-4-yl)oxy)bicyclo[3.1.0]hexane-6-carboxamide] showed an IC50 greater than 5000 nM.

`CCC(NC(=O)c1ccc(Cl)cc1)[C@H]1[C@@H]2C[C@@H](Oc3ccc(F)nc3)C[C@@H]21` (stereo partly drawn) [Compound 18, 4-chloro-N-(1-((1R,3s,5S,6r)-3-((6-fluoropyridin-3-yl)oxy)bicyclo[3.1.0]hexan-6-yl)propyl)benzamide] showed an IC50 of less than 200 nM.

`CCC(NC(=O)c1ccc(Cl)cc1)[C@H]1[C@@H]2C[C@@H](Oc3cc(C)nc4ccc(F)cc34)C[C@@H]21` (stereo partly drawn) [Compound 20, 4-chloro-N-(1-((1R,3s,5S,6r)-3-((6-fluoro-2-methylquinolin-4-yl)oxy)bicyclo[3.1.0]hexan-6-yl)propyl)benzamide] showed an IC50 of less than 200 nM.

`CCC(NC(=O)c1ccc(Cl)cc1)[C@H]1[C@@H]2C[C@@H](Oc3ncnc4cc(Cl)ccc34)C[C@@H]21` (stereo partly drawn) [Compound 21, 4-chloro-N-(1-((1R,3s,5S,6r)-3-((7-chloroquinazolin-4-yl)oxy)bicyclo[3.1.0]hexan-6-yl)propyl)benzamide] showed an IC50 of less than 200 nM.

For `CCC(NC(=O)c1ccc(Cl)cc1)C1C2CC(Oc3cc(C(F)(F)F)nc4ccc(F)cc34)CC21` [Compound 22, 4-chloro-N-(1-((1R,3s,5S,6r)-3-((6-fluoro-2-(trifluoromethyl)quinolin-4-yl)oxy)bicyclo[3.1.0]hexan-6-yl)propyl)benzamide], the IC50 was less than 200 nM.

With `O=C(NC[C@H]1[C@H]2C[C@H](Oc3cc(C(F)(F)F)nc4ccc(F)cc34)C[C@@H]12)c1ccc(Cl)cc1` [Compound 24, 4-chloro-N-(((1R,3s,5S,6s)-3-((6-fluoro-2-(trifluoromethyl)quinolin-4-yl)oxy)bicyclo[3.1.0]hexan-6-yl)methyl)benzamide] the IC50 was 200 to 2000 nM.

`O=C(NC1C2CC(Oc3cc(C(F)(F)F)nc4ccc(F)cc34)CC21)c1ccc(Cl)cc1` (centres unmarked) [Compound 25, 4-chloro-N-(3-((6-fluoro-2-(trifluoromethyl)quinolin-4-yl)oxy)bicyclo[3.1.0]hexan-6-yl)benzamide] was tested, and the IC50 was greater than 5000 nM.

With `O=C(NC1C2CC(Oc3ccnc4ccccc34)CC21)c1ccc(Cl)cc1` (centres unmarked) [Compound 26, 4-chloro-N-(3-(quinolin-4-yloxy)bicyclo[3.1.0]hexan-6-yl)benzamide] the IC50 was 200 to 2000 nM.

`O=S(=O)(Cc1ccc(Br)cc1)NC1C2CC(Oc3ccnc4ccccc34)CC21` (centres unmarked) [Compound 27, 1-(4-bromophenyl)-N-(3-(quinolin-4-yloxy)bicyclo[3.1.0]hexan-6-yl)methanesulfonamide] was tested, and the IC50 was greater than 5000 nM.

`O=S(=O)(NC1C2CC(Oc3ccnc4ccccc34)CC21)c1ccc(Cl)cc1` (centres unmarked) [Compound 28, 4-chloro-N-(3-(quinolin-4-yloxy)bicyclo[3.1.0]hexan-6-yl)benzenesulfonamide] was tested, and the IC50 was greater than 5000 nM.

`O=C(Nc1ccc(Cl)cc1)N[C@H]1[C@@H]2C[C@H](Oc3ccnc4ccc(F)cc34)C[C@@H]21` [Compound 29, 1-(4-chlorophenyl)-3-((1R,3r,5S,6r)-3-((6-fluoroquinolin-4-yl)oxy)bicyclo[3.1.0]hexan-6-yl)urea] was tested, and the IC50 was 200 to 2000 nM.

Molecule `O=C(Cc1ccc(Cl)cc1)NC1[C@H]2CC(Oc3ccnc4ccccc34)C[C@@H]12` (stereo partly drawn) [Compound 30, 2-(4-chlorophenyl)-N-((1R,5S)-3-(quinolin-4-yloxy)bicyclo[3.1.0]hexan-6-yl)acetamide] has an IC50 of less than 200 nM.

`O=C(Cc1ccc(Cl)cc1)NC1[C@H]2CC(Oc3ccnc4ccc(F)cc34)C[C@@H]12` (stereo partly drawn) [Compound 31, 2-(4-chlorophenyl)-N-((1R,3r,5S)-3-((6-fluoroquinolin-4-yl)oxy)bicyclo[3.1.0]hexan-6-yl)acetamide] showed an IC50 of 200 to 2000 nM.

In the case of `O=C(NC[C@@H]1[C@H]2C[C@@H](Oc3ccc4nccc(Cl)c4c3)C[C@@H]12)c1ccc(Cl)cc1` [Compound 33, 4-chloro-N-(((1R,3r,5S,6r)-3-((4-chloroquinolin-6-yl)oxy)bicyclo[3.1.0]hexan-6-yl)methyl)benzamide], the IC50 is reported as 200 to 2000 nM.
